According to patent US20250340575A1, “4-AMINOPYRROLO[2,1-F][1,2,4]TRIAZINES AND PREPARATION AND USES THEREOF” (Biosplice Therapeutics, Inc., priority 2024, published 2025):

Biological target: recombinant DYRK1A kinase (Homo sapiens, UniProt Q13627)
Assay: DYRK1A kinase assay (Ser/Thr 18 peptide Z-lyte FRET)
Format: biochemical
Settings: DYRK1A 0.25 μg/mL, ATP 15 μM, Ser/Thr peptide 18 4 μM, one hour at room temperature, 11-point dose-response from 10 μM
Description: Representative compounds were screened using the assay procedure for DYRK1A kinase activity as described below.
Each compound was dissolved in DMSO as a 10 mM stock and used to prepare compound source plates. Serial dilution (1:3, 11-point dose-response curves from 10 μM to 0.00016 μM) and compound transfer was performed using the ECHO 550 (Labcyte, Sunnyvale, CA) into 1536-well black-walled round bottom plates (Corning).
The DYRK1A kinase assay was run using the Ser/Thr 18 peptide Z-lyte assay kit according to manufacturer's instructions (Life Technologies—a Division of Thermo-Fisher). This is a non-radioactive assay using fluorescence resonance energy transfer (FRET) between coumarin and fluorescein to detect kinase activity which is represented as a ratio of coumarin emission/fluorescein emission.
Briefly, recombinant DYRK1A kinase, ATP and Ser/Thr peptide 18 were prepared in 1× Kinase buffer to final concentrations of 0.25 μg/mL, 15 μM, and 4 μM respectively. The mixture was allowed to incubate with the representative compounds for one hour at room temperature. All reactions were performed in duplicate. Unphosphorylated (“0% Control”) and phosphorylated (“100% control”) forms of Ser/Thr 18 served as control reactions. Additionally, an 11-point dose-response curve of Staurosporine (1 uM top) was run to serve as a positive compound control.
After incubation, Development Reagent A was diluted in Development Buffer then added to the reaction and allowed to further incubate for one hour at room temperature. The plate was read at Ex 400 Em 455 to detect the coumarin signal and Ex 400 Em 520 to measure the signal (EnVision Multilabel Plate Reader, PerkinElmer).
The Emission ratio (Em) was calculated as a ratio of the coumarin (C) emission signal (at 445 nm)/Fluorescein (F) emission signal (at 520 nm). The percent phosphorylation was then calculated using the following formula: [1−((Em ratio×F100%)−C100%)/((C0%−C100%)+(Em ratio×(F100%−F0%)))]. Dose-response curves were generated, and inhibitory concentration (IC50) values were calculated using non-linear regression curve fit in the Dotmatics' Studies Software (Bishops Stortford, UK).

SMILES | IC50 [nM]
CNc1nc(N[C@H]2CCN(C(C)=O)C[C@H]2F)nn2cc(F)c(-c3ccc4nccn4n3)c12 [Compound 53, 1-((3R,4S)-3-Fluoro-4-((6-fluoro-5-(imidazo[1,2-b]pyridazin-6-yl)-4-(methylamino)pyrrolo[2,1-f][1,2,4]triazin-2-yl)amino)piperidin-1-yl)ethan-1-one] | 2.5
CC(=O)N1CC[C@@H](Nc2nc(N)c3c(-c4ccc5nc(C)n(CCF)c5n4)c(F)cn3n2)C(F)(F)C1 [Compound 147, (R)-1-(4-((4-Amino-6-fluoro-5-(3-(2-fluoroethyl)-2-methyl-3H-imidazo[4,5-b]pyridin-5-yl)pyrrolo[2,1-f][1,2,4]triazin-2-yl)amino)-3,3-difluoropiperidin-1-yl)ethan-1-one] | 1.4
CNc1nc(N[C@H]2C[C@](C)(O)C2)nn2ccc(-c3ccc4ncn(CC(F)(F)F)c4n3)c12 [Compound 132, (1r,3r)-1-Methyl-3-((4-(methylamino)-5-(3-(2,2,2-trifluoroethyl)-3H-imidazo [4,5-b]pyridin-5-yl)pyrrolo[2,1-f][1,2,4]triazin-2-yl)amino)cyclobutan-1-ol] | 1.2
CNc1nc(N[C@@H]2CCN(C(C)=O)CC2(F)F)nn2cc(F)c(-c3ccc4nnn(CC(F)F)c4n3)c12 [Compound 293, (R)-1-(4-((5-(3-(2,2-Difluoroethyl)-3H-[1,2,3]triazolo[4,5-b]pyridin-5-yl)-6-fluoro-4-(methylamino)pyrrolo[2,1-f][1,2,4]triazin-2-yl)amino)-3,3-difluoropiperidin-1-yl)ethan-1-one] | 1.9
COCCN1CC[C@H](Nc2nc(N)c3c(-c4ccc5ncn(CCF)c5n4)ccn3n2)[C@H](F)C1 [Compound 114, N^2-((3R,4S)-3-Fluoro-1-(2-methoxyethyl)piperidin-4-yl)-5-(3-(2-fluoroethyl)-3H-imidazo[4,5-b]pyridin-5-yl)pyrrolo[2,1-f][1,2,4]triazine-2,4-diamine] | 1.6
CNc1nc(N[C@H]2CCN(C(C)=O)C[C@H]2F)nn2cc(F)c(-c3ccc4nc(C)n(CCF)c4n3)c12 [Compound 163, 1-((3R,4S)-3-Fluoro-4-((6-fluoro-5-(3-(2-fluoroethyl)-2-methyl-3H-imidazo [4,5-b]pyridin-5-yl)-4-(methylamino)pyrrolo[2,1-f][1,2,4]triazin-2-yl)amino)piperidin-1-yl)ethan-1-one] | 1.3
C[C@]1(O)CC[C@H](Nc2nc(N)c3c(-c4ccc5nnn(CC(F)F)c5n4)c(F)cn3n2)CC1 [Compound 257, (1r,4r)-4-((4-Amino-5-(3-(2,2-difluoroethyl)-3H-[1,2,3]triazolo[4,5-b]pyridin-5-yl)-6-fluoropyrrolo[2,1-f][1,2,4]triazin-2-yl)amino)-1-methylcyclohexan-1-ol] | 1.4
Nc1nc(N[C@@H]2CCN(C3COC3)CC2(F)F)nn2cc(F)c(-c3ccc4nccn4n3)c12 [Compound 43, (R)—N2-(3,3-Difluoro-1-(oxetan-3-yl)piperidin-4-yl)-6-fluoro-5-(imidazo [1,2-b]pyridazin-6-yl)pyrrolo[2,1-f][1,2,4]triazine-2,4-diamine] | 3.1
CC(=O)N1CC[C@H](Nc2nc(N)c3c(-c4ccc5nnn(CC(F)F)c5n4)c(F)cn3n2)[C@H](F)C1 [Compound 258, 1-((3R,4S)-4-((4-amino-5-(3-(2,2-difluoroethyl)-3H-[1,2,3]triazolo[4,5-b]pyridin-5-yl)-6-fluoropyrrolo[2,1-f][1,2,4]triazin-2-yl)amino)-3-fluoropiperidin-1-yl)ethan-1-one] | 1.3
CNc1nc(N[C@H]2CCN(C(C)=O)C[C@H]2F)nn2cc(F)c(-c3ccc4nnn(CCF)c4n3)c12 [Compound 249, 1-((3R,4S)-3-Fluoro-4-((6-fluoro-5-(3-(2-fluoroethyl)-3H-[1,2,3]triazolo[4,5-b]pyridin-5-yl)-4-(methylamino)pyrrolo[2,1-f][1,2,4]triazin-2-yl)amino)piperidin-1-yl)ethan-1-one] | 1.9
CNc1nc(N[C@H]2CCN(C(=O)CO)C[C@H]2F)nn2ccc(-c3ccc4nc(C)n(CC(F)F)c4n3)c12 [Compound 174, 1-((3R,4S)-4-((5-(3-(2,2-Difluoroethyl)-2-methyl-3H-imidazo[4,5-b]pyridin-5-yl)-4-(methylamino)pyrrolo[2,1-f][1,2,4]triazin-2-yl)amino)-3-fluoropiperidin-1-yl)-2-hydroxyethan-1-one] | 2

Other lines, results leading:

IC50 [nM] | SMILES
0.7 | CNc1nc(N[C@@H]2CCN(C)CC2(F)F)nn2ccc(-c3ccc4nnn(CCF)c4n3)c12 [Compound 237, (R)—N^2-(3,3-Difluoro-1-methylpiperidin-4-yl)-5-(3-(2-fluoroethyl)-3H-[1,2,3]triazolo[4,5-b]pyridin-5-yl)-N^4-methylpyrrolo[2,1-f][1,2,4]triazine-2,4-diamine]
2.9 | CNc1nc(NC2CCN(C3COC3)CC2)nn2ccc(-c3ccc4nnn(CC(F)F)c4n3)c12 [Compound 271, 5-(3-(2,2-Difluoroethyl)-3H-[1,2,3]triazolo[4,5-b]pyridin-5-yl)-N^4-methyl-N^2-(1-(oxetan-3-yl)piperidin-4-yl)pyrrolo[2,1-f][1,2,4]triazine-2,4-diamine]
1.4 | CNc1nc(N[C@@H]2CCN(C3COC3)CC2(F)F)nn2cc(F)c(-c3ccc4nnn(CC(F)F)c4n3)c12 [Compound 295, (R)—N^2-(3,3-Difluoro-1-(oxetan-3-yl)piperidin-4-yl)-5-(3-(2,2-difluoroethyl)-3H-[1,2,3]triazolo[4,5-b]pyridin-5-yl)-6-fluoro-N^4-methylpyrrolo[2,1-f][1,2,4]triazine-2,4-diamine]
4.2 | CCNc1nc(N[C@H]2CCN(C3COC3)C[C@H]2F)nn2ccc(-c3ccc4nnn(CC(F)F)c4n3)c12 [Compound 403, 5-(3-(2,2-Difluoroethyl)-3H-[1,2,3]triazolo[4,5-b]pyridin-5-yl)-N^4-ethyl-N^2-((3R,4S)-3-fluoro-1-(oxetan-3-yl)piperidin-4-yl)pyrrolo[2,1-f][1,2,4]triazine-2,4-diamine]
0.6 | CNc1nc(N[C@@H]2CCN(C3COC3)CC2(F)F)nn2ccc(-c3ccc4nnn(CCF)c4n3)c12 [Compound 239, (R)—N^2-(3,3-Difluoro-1-(oxetan-3-yl)piperidin-4-yl)-5-(3-(2-fluoroethyl)-3H-[1,2,3]triazolo[4,5-b]pyridin-5-yl)-N^4-methylpyrrolo[2,1-f][1,2,4]triazine-2,4-diamine]
1.2 | CNc1nc(N[C@@H]2CCN(C(=O)CO)CC2(F)F)nn2ccc(-c3ccc4nnn(CC(F)F)c4n3)c12 [Compound 276, (R)-1-(4-((5-(3-(2,2-Difluoroethyl)-3H-[1,2,3]triazolo[4,5-b]pyridin-5-yl)-4-(methylamino)pyrrolo[2,1-f][1,2,4]triazin-2-yl)amino)-3,3-difluoropiperidin-1-yl)-2-hydroxyethan-1-one]
1.3 | CNc1nc(N[C@@H]2CCN(C(=O)CO)CC2(F)F)nn2ccc(-c3ccc4nc(C)n(CC(F)F)c4n3)c12 [Compound 175, (R)-1-(4-((5-(3-(2,2-Difluoroethyl)-2-methyl-3H-imidazo[4,5-b]pyridin-5-yl)-4-(methylamino)pyrrolo[2,1-f][1,2,4]triazin-2-yl)amino)-3,3-difluoropiperidin-1-yl)-2-hydroxyethan-1-one]
0.7 | CNc1nc(N[C@H]2CCN(C3COC3)C[C@H]2F)nn2cc(F)c(-c3ccc4nnn(CCF)c4n3)c12 [Compound 250, 6-Fluoro-N^2-((3R,4S)-3-fluoro-1-(oxetan-3-yl)piperidin-4-yl)-5-(3-(2-fluoroethyl)-3H-[1,2,3]triazolo[4,5-b]pyridin-5-yl)-N^4-methylpyrrolo[2,1-f][1,2,4]triazine-2,4-diamine]
3.1 | CNc1nc(N[C@@H]2CCN(C)CC2(F)F)nn2ccc(-c3ccc4nnn(CCCF)c4n3)c12 [Compound 338, (R)—N^2-(3,3-Difluoro-1-methylpiperidin-4-yl)-5-(3-(3-fluoropropyl)-3H-[1,2,3]triazolo[4,5-b]pyridin-5-yl)-N^4-methylpyrrolo[2,1-f][1,2,4]triazine-2,4-diamine]
2.2 | CNc1nc(N[C@@H]2CCN(C3COC3)CC2(F)F)nn2ccc(-c3ccc4nc(C)n(CCF)c4n3)c12 [Compound 160, (R)—N^2-(3,3-Difluoro-1-(oxetan-3-yl)piperidin-4-yl)-5-(3-(2-fluoroethyl)-2-methyl-3H-imidazo[4,5-b]pyridin-5-yl)-N^4-methylpyrrolo[2,1-f][1,2,4]triazine-2,4-diamine]
1.2 | Nc1nc(N[C@@H]2CCN(C3COC3)CC2(F)F)nn2cc(F)c(-c3ccc4nnn(CC(F)F)c4n3)c12 [Compound 264, (R)—N^2-(3,3-Difluoro-1-(oxetan-3-yl)piperidin-4-yl)-5-(3-(2,2-difluoroethyl)-3H-[1,2,3]triazolo[4,5-b]pyridin-5-yl)-6-fluoropyrrolo[2,1-f][1,2,4]triazine-2,4-diamine]
